Experimental data taken from PubChem BioAssay AID743396 (Broad Institute, 2014).
Active and inactive are the calls of the source.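 The calls were made as follows: active = fitted curve reaches a 40% rise in fluorescent cells at or below the top valid dose; inactive = opposite-direction effect, or the rest.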

Test: compound fluorescence in GFP channel, mTEFS cells – imaging, mTEFS fibroblasts, cherry-pick, artefact control for X-chromosome reactivation project, dose response (AID 743396);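 also: raw share of Hoechst-counted cells scored GFP positive without control normalization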
Details: mTEFS fibroblasts autofluorescence, GFP-channel imaging, 3 days; at 19.5 µM (top of the series)

| Compound | % fluorescent cells increase |
| --- | --- |
| Cc1cc(/C=C2/C(=O)NC(=O)N(Cc3ccco3)C2=O)c(C)n1-c1ccccc1O | 0% (inactive) |
| O=[N+]([O-])c1ccc(O)c([N+](=O)[O-])c1 | 0% (inactive) |

Same assay, conditions: mTEFS fibroblasts autofluorescence, GFP-channel imaging, 3 days; at 19.5 µM (top of the series); cells pretreated with 5-aza-dC

| Compound | % fluorescent cells increase |
| --- | --- |
| CC1C=NC(S(=O)(=O)N2CC[C@@H]3[C@@H](CO)N(C)c4ccc(-c5ccccc5)cc4[C@@H]32)=N1 (stereo not given in full) | 0% (inactive) |
| COc1cc(NC(C)CCc2ccccc2)cc(OC)c1OC (stereo not given) | 0% (inactive) |
| CN(C)S(=O)(=O)c1cccc(C(=O)NCC2(N3CCOCC3)CCCCC2)c1 | 0.019% (inactive) |
| O=c1c(Cl)c(Cl)cnn1Cc1nnc(-c2ccccc2Br)o1 | -0.006% (inactive) |
| COc1ccc(S(=O)(=O)Nc2cccc3c2O[C@H](CN(C)S(=O)(=O)c2cn(C)cn2)[C@H](C)CN([C@H](C)CO)C3=O)cc1 | 0.016% (inactive) |
| [N-]=[N+]=CC(=O)C(O)(c1ccccc1)C(Cl)c1ccccc1 (stereo not given) | -0.007% (inactive) |
| COc1ccc(NC(=O)COc2ccc(C)c(C)c2)cc1S(=O)(=O)N1CCCCC1 | 0.026% (inactive) |
| COc1ccccc1C(=O)Nc1nnc(S(=O)(=O)N2CCCCCC2)s1 | 0.055% (inactive) |
| COC(=O)c1sc(-c2ccc(C(C)(C)C)cc2)cc1NC(=O)c1ccccc1C(=O)O | 0.032% (inactive) |
| CN(C)CCN(Cc1ccc(Cl)cc1)c1ccccn1 | -0.004% (inactive) |
| CC(=O)c1cccc(-c2ccc3c(c2)C(C)(Cc2ccc(S(C)(=O)=O)cc2)C(=O)N3)c1 (stereo not given) | 0% (inactive) |
| Cc1ccc2[nH]c(C)c(/C=C/c3cc[n+](C)cc3)c2c1 | 8.78% (inactive) |
| Cn1c(=O)c(C#N)c(-c2ccc(F)cc2)c2cc(C(=O)c3cc(Cl)cc(Cl)c3O)cnc21 | 0.617% (inactive) |
| O=C(CC1CC1)N1CC(=O)N2[C@@H](CO)[C@H](c3ccc(C#Cc4ccc(F)cc4)cc3)[C@@H]2C1 | -0.043% (inactive) |
| CC(C)N1CCc2c(sc(NC(=O)c3cc4cc([N+](=O)[O-])ccc4s3)c2C(N)=O)C1 | 0% (inactive) |
| COc1ccc2c3c([nH]c2c1)[C@H](CO)N(C(=O)C1CCCC1)CC31CN(Cc2nccs2)C1 | 0.113% (inactive) |
| C=Cc1cnc([N+](=O)[O-])n1C | 0.007% (inactive) |
| Cc1ccc(S(=O)(=O)N(C)C[C@H]2Oc3ccc(NC(=O)Nc4ccccc4)cc3CC(=O)N([C@H](C)CO)C[C@@H]2C)cc1 | 0% (inactive) |
| Cc1ccc(S(=O)(=O)N(C)c2ccc(C)c([N+](=O)[O-])c2)cc1 | 0.055% (inactive) |
| COc1ccc(-n2nc(C#N)c(Cl)cc2=O)cc1 | -0.006% (inactive) |
| CCCN(C(=O)c1ccc(-n2cncn2)c([N+](=O)[O-])c1)C1CCS(=O)(=O)C1 (stereo not given) | 0.034% (inactive) |
| CCOC(=O)Nc1cc2c(c(N)n1)N=C(c1ccccc1)CN2 | 0.925% (inactive) |
| CCOCCCNC(=O)/C(C#N)=C/c1ccc([N+](=O)[O-])o1 | 9.9% (inactive) |
| Cc1cc(NC(=O)c2c(-c3c(Cl)cccc3Cl)noc2C)n(C)n1 | 0.012% (inactive) |
| C=CC[C@@H](CC(=O)N(CCO)Cc1ccccc1)C(=O)NCCOC(=O)[C@@H](CC=C)Cc1ccc(F)cc1 | 0.009% (inactive) |
| COc1cc(/C=C/c2ccc3cccc(O)c3n2)cc(OC)c1OC | 0% (inactive) |

| Compound | % fluorescent cells increase |
| --- | --- |
| Cc1ccc(C(=O)Cn2cncn2)cc1 | -0.006% (inactive) |
| C[C@@H]1COc2cccc(NCCO)c2S(=O)(=O)N1 | 0% (inactive) |
| CO[C@@H]1CN(C)C(=O)c2ccc(NC(=O)Nc3cccc(Cl)c3)cc2OC[C@H](C)N(C(=O)Nc2c(C)noc2C)C[C@H]1C | 0.367% (inactive) |
| CC(=O)Nc1ccc(NS(=O)(=O)c2ccc3c(c2)oc(=O)n3C)cc1 | 0.01% (inactive) |
| O=C(NC1=C(NC2CCS(=O)(=O)C2)C(=O)c2ccccc2C1=O)c1ccccc1 (stereo not given) | 0% (inactive) |
| O=C(C[C@@H]1C[C@@H]2c3cc(NC(=O)C4CCC4)ccc3O[C@@H]2[C@@H](CO)O1)NCc1ccc(Cl)cc1 | 0.34% (inactive) |
| COc1ccc(-c2nnc(NC(=O)c3ccc(F)cc3)o2)cc1 | 0% (inactive) |
| O=C(NNC(=O)c1cc2ccccc2o1)c1ccc(Cl)cc1 | 0.148% (inactive) |
| Nc1nnc(SCC(=O)c2ccc([N+](=O)[O-])cc2)s1 | -0.007% (inactive) |
| COc1ccc(/C=C2\CCc3ccccc3C2=O)cc1CN1CCOCC1 | -0.007% (inactive) |
| Cc1[nH]c2ccc(Br)cc2c(=O)c1CN1CCCCCC1 | 0% (inactive) |
| O=C(CSc1nc2ccccc2[nH]1)N/N=C/C=C/c1ccccc1[N+](=O)[O-] | 0.094% (inactive) |
| Cc1ccc(-c2csc(NC(=O)c3cccc([N+](=O)[O-])c3C(=O)O)n2)cc1 | 0% (inactive) |
| CCOc1ccc(CCN2C(=S)N([C@@H](Cc3ccccc3)CN3CCC[C@@H]3CN3C(=S)NC[C@@H]3CC(C)C)C[C@@H]2Cc2ccccc2)cc1 | 0.019% (inactive) |
| COc1cccc(CNC(=O)c2cc(S(=O)(=O)N3CCCC3)cn2C)c1 | 0% (inactive) |
| CC1CN(Cc2c(O)ccc3c2oc(=O)c2ccccc23)CC(C)O1 (stereo not given) | 0.279% (inactive) |
| C/C(=N\NC(=O)c1ccccc1Cl)c1ccccn1 | 0% (inactive) |
| O=C(Nc1ccccc1N1CCCCC1)c1cnccn1 | 0.039% (inactive) |
| CC(C)(C)N(Cc1ccccc1)C(=O)COC(=O)c1ccc(N2CCCC2=O)cc1 | -0.007% (inactive) |
| COCCNC(=S)N(Cc1cccnc1)Cc1ccc(OC)c(OC)c1 | 1.33% (inactive) |
| Nc1ccccc1Sc1ccc(C(F)(F)F)cc1[N+](=O)[O-] | 0% (inactive) |
| CCc1ccc(N2CC(C(=O)Nc3cc(C)on3)CC2=O)cc1 (stereo not given) | 0.015% (inactive) |
| COC(=O)Nc1ccc(S(=O)(=O)N2CCCC(C(=O)N3CCN(C)CC3)C2)cc1 (stereo not given) | 0% (inactive) |
| O=C1C=CC(=O)C(CNc2ccc(C(=O)OCc3ccccc3)cc2)=C1 | 0% (inactive) |
| COc1ccc(C2=NOC3(CC(=O)N(c4ccc(F)cc4)C3=O)C2)cc1 (stereo not given) | 0.016% (inactive) |
| O=C(Nc1ccccc1)N1C[C@@H]2[C@H](c3ccccc31)[C@H](CO)N2C(=O)c1ccccc1F | 0.041% (inactive) |

| Compound | % fluorescent cells increase |
| --- | --- |
| CN(C)CCCNC(=O)/C(=C\c1ccc(-c2ccc(Br)cc2)o1)NC(=O)c1ccccc1 | -0.006% (inactive) |
| CCN1CCN(c2cc(C)c3cc(NC(=O)c4cccs4)ccc3n2)CC1 | 0.257% (inactive) |
| COc1cc(/C=C/c2ccc3cccc(O)c3n2)c(Br)cc1O | 0% (inactive) |
| COc1ccc(CN(C)C[C@H]2OCCCC[C@@H](C)Oc3ccc(NC(=O)Nc4ccc(F)cc4)cc3C(=O)N([C@@H](C)CO)C[C@H]2C)cc1 | 0% (inactive) |
| COc1ccc2c(c1)C(C)=CC(C)(C)N2S(=O)(=O)c1ccc(Br)cc1 | 0% (inactive) |
| Cc1ccc(NC(=O)c2ncn(CCCNCCCN(C)C)n2)cc1C | 0% (inactive) |
| O=[N+]([O-])c1ccc(S(=O)(=O)c2ccccc2)nc1 | -0.004% (inactive) |
| C[C@H]1CCCCO[C@@H](CN(C)C(=O)Nc2ccc(C(F)(F)F)cc2)[C@@H](C)CN([C@@H](C)CO)C(=O)c2cc(NC(=O)CCC(F)(F)F)ccc2O1 | -0.166% (inactive) |
| COC(=O)c1ccc(NC(=O)c2nc(S(=O)(=O)Cc3cccc(C)c3)ncc2Cl)cc1 | -0.007% (inactive) |
| COc1cc(C(=O)NC(=S)Nc2cccc3nc(C)ccc23)cc(OC)c1OC | 0.128% (inactive) |
| Cc1cccc(CS(=O)(=O)Cc2ccc(C(=O)NCc3cccs3)o2)c1 | 0.029% (inactive) |
| NS(=O)(=O)c1cccc(NC(=O)COC(=O)Cc2ccc(S(=O)(=O)N3CCOCC3)s2)c1 | 0% (inactive) |
| COc1ccc(C2=C(c3ccccc3)OC(OC)c3cc(F)ccc32)cn1 (stereo not given) | 0.033% (inactive) |
| NC(=NC(=O)c1cccc(C(F)(F)F)c1)c1ccc(C(F)(F)F)cn1 | 0% (inactive) |
| C=CCN(CC(O)c1cccc([N+](=O)[O-])c1)C(C)CCc1ccccc1 (stereo not given) | 1.4% (inactive) |
| COc1ccc(CCCc2nc3ccccc3[nH]2)cc1 | -0.011% (inactive) |
| O=c1c2cc(-c3ccccc3)sc2nc2n1N=C(c1ccccc1)CS2 | 1.14% (inactive) |
| COc1cccc(NC(=O)N(C)C[C@@H]2Oc3cc(Br)ccc3S(=O)(=O)N([C@@H](C)CO)C[C@H]2C)c1 | 0.017% (inactive) |
| CC(C)N1C(=O)C(=O)N(CC(=O)N2CCc3ccccc32)C1=O | 0.029% (inactive) |
| COc1ccc(S(=O)(=O)N(C)C[C@H]2Oc3ccc(NS(=O)(=O)c4ccc(F)cc4)cc3CC(=O)N([C@@H](C)CO)C[C@@H]2C)cc1 | 0% (inactive) |
| Cc1cccc(NC(=O)Cn2cnc3c(oc4nc5c(cc43)COC(C)(C)C5)c2=O)c1 | 2.35% (inactive) |
| CCOc1ccccc1N1C(=O)CC(Sc2nccc(C)n2)C1=O (stereo not given) | 0% (inactive) |
| CC(C)c1ccc(N2C(=O)/C(=C/N(C)C)SC2=S)cc1 | 0.026% (inactive) |
| O=C(c1nc(SCc2ccc([N+](=O)[O-])cc2)n2ccccc12)C(F)(F)F | 0.04% (inactive) |
| CCC1Oc2ccc(C)cc2N(CC(=O)N2CCCC2)C1=O (stereo not given) | 0.001% (inactive) |

Same assay, conditions: mTEFS fibroblasts autofluorescence, GFP-channel imaging, 3 days; at 21 µM (top of the series); cells pretreated with 5-aza-dC

| Compound | % fluorescent cells increase |
| --- | --- |
| CO[C@H](CN(C)C(=O)Nc1ccc(C(F)(F)F)cc1)[C@@H](C)CN(Cc1ccccc1Cl)[C@@H](C)CO | 0% (inactive) |
